System: inside of the forearm
Test: Skin conductance with time after water supply to the site treated with emollient milk
Format: in vivo, human
Conditions: conclusion from Tables 5 and 6; conductance on forearm after water supply
Description: Each of the emollient milks described in Table 3 was applied to the inside of the forearm in the same manner in Test Example 2, and dried for 30 minutes. A drop of distilled water was placed on that site to conduct water supply for 10 seconds, followed by wiping off. Then, the conductance values were measured with time for 15 minutes (n=3).
Process: Emollient milks having the same components as described in Table 3 with the exception that 3-(menthoxy)propane-1,2-diol was substituted by p-menthane-3,8-diol were prepared (Example 3 and Comparative Example 3). Each was applied to the inside of the forearm in an amount of 65 mg/cm^2, and evaluated in the same manner as in Test Example 3.

For `CC1CCC(C(C)(C)O)C(O)C1` (stereo not shown) [p-menthane-3,8-diol], the “water-retention function (in words)” value was “excellent water-retention function”.

Reference: patent publication US20080171794A1, “HUMECTANT COMPOSITION” (TAKASAGO INTERNATIONAL CORPORATION, priority 2007, published 2008)
